Assay results taken from patent publication US12692274B2, “Tetrahydroisoquinoline derivatives for the treatment of red blood disorders and inflammatory diseases” (Sanofi, priority 2020, dated 2026).
“And” between values parts separate entries of the source, which are not always exact repeats. Equal values may be shown once.

How the values were obtained:
[1] = molecular target: HIS-Keap1 full length / Biotin-Nrf2 (16-mer) (Homo sapiens, UniProt Q14145); test: biochemical
[2] = system: NQO1 activation in BEAS-2B cells; test: BEAS-2B cellular MTT assay of NQO1 activation, 0.3% HSA; format: cell-based
Method in brief: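 MTT read-out in BEAS-2B cells grown in BEBM with SingleQuots, no GA-1000, kept below 70% confluence; plates coated with collagen, with 0.3% or 0% HSA medium, seeded to 95-100% confluency at 48 h, 37 °C, 5% CO2.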

[3] = system: NQO1 activation in BEAS-2B cells; test: BEAS-2B cellular MTT assay of NQO1 activation, 0% HSA; format: cell-based
Method in brief: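 For the 0% HSA condition, cells were seeded into collagen plates in HSA-free medium. Culture was BEAS-2B in BEBM plus BEGM SingleQuots lacking GA-1000, held under 70% confluence, at a seeding density reaching 95-100% confluence by 48 h.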

[4] = Homo sapiens, BEAS+, read-out: BEAS+ EC50
[5] = Homo sapiens, serum free, read-out: BEAS EC50 (nM) serum free
[6] = serum free, read-out: BEAS EC50 (nM) serum free
[7] = BEAS+ W, read-out: BEAS+ W EC50
[8] = Homo sapiens, BEAS+ W, read-out: BEAS+ W EC50
[9] = Homo sapiens, Serum Free W, read-out: BEAS EC50 (nM) Serum Free W
[10] = Serum Free W, read-out: BEAS EC50 (nM) Serum Free W

Chain of HIS-Keap1 full length / Biotin-Nrf2 (16-mer) (Q14145 whole entry): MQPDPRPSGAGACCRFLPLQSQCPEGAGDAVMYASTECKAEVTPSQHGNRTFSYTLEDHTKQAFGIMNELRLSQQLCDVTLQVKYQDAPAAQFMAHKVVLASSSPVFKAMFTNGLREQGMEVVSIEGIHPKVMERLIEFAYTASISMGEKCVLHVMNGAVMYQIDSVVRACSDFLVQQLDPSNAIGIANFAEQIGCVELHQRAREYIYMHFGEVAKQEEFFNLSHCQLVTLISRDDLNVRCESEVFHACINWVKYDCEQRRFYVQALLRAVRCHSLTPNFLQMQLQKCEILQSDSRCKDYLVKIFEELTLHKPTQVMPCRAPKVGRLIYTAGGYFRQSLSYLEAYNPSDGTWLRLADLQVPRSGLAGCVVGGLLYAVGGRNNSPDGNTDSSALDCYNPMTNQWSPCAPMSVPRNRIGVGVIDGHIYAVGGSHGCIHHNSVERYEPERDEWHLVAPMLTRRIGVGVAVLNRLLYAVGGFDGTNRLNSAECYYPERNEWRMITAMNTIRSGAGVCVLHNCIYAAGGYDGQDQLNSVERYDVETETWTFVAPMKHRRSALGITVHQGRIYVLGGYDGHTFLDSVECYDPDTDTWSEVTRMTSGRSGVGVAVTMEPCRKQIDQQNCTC

## Cc1c2ccc3c1nnn3CCCCCCOc1ccc(cc1)C(=O)N1CCc3ccc(cc3C1)C2CC(=O)O (centres unmarked) [Compound 247]
[1]
  IC50: 1.6 nM and 1.7 nM
[2]; BEAS+, read-out: BEAS+ EC50
  EC50: 47.2 nM
[2]; [4]
  EC50: 45.4 nM
[3]; [5]
  EC50: 29.4 nM
[3]; [6]
  EC50: 26.3 nM

## COc1cc2ccc1C(=O)N1CCc3ccc(cc3C1)[C@H](CC(=O)O)c1cnc3c(nnn3CCCCCC2)c1C [Compound 94]
[1]
  IC50: 1.1 nM and 1.3 nM
[2]; [7]
  EC50: 52.3 nM
[2]; [8]
  EC50: 51 nM
[3]; [9]
  EC50: 36.8 nM
[3]; [10]
  EC50: 63.2 nM

## Cc1cc2ccc1C(=O)N1CCc3ccc(cc3C1)C(CC(=O)O)c1cnc(cc1C)OCCCCC2 (centres unmarked) [Compound 163]
[1]
  IC50: 2.4 nM
[2]; BEAS+, read-out: BEAS+ EC50
  EC50: 9.3 nM
[2]; [4]
  EC50: 10 nM
[3]; [5]
  EC50: 2.6 nM
[3]; [6]
  EC50: 3.3 nM

## O=C(O)CC1c2ccc(cc2)OCCCCCCOc2ccc(cc2)C(=O)N2CCc3ccc1cc3C2 (centres unmarked) [Compound 391]
[1]
  IC50: 276 nM and 265 nM
[2]; BEAS+, read-out: BEAS+ EC50
  EC50: 1950 nM
[2]; [4]
  EC50: 2060 nM
[3]; [5]
  EC50: 8.8 nM
[3]; [6]
  EC50: 7.9 nM

## Cc1c2ccc3c1nnn3CCCCCc1ccc(nc1)C(=O)N1CCc3ccc(cc3C1)C2CC(=O)O (centres unmarked) [Compound 228]
[1]
  IC50: 1.3 nM
[2]; BEAS+, read-out: BEAS+ EC50
  EC50: 667 nM
[2]; [4]
  EC50: 771 nM
[3]; [5]
  EC50: 524 nM
[3]; [6]
  EC50: 471 nM

## COc1cc2ccc1CCCCCn1nnc3c(C)c(cnc31)C(CC(=O)O)c1ccc3c(c1)CN(CC3)C2=O (centres unmarked) [Compound 165]
[1]
  IC50: 1.7 nM and 1.6 nM
[2]; BEAS+, read-out: BEAS+ EC50
  EC50: 21.1 nM
[2]; [4]
  EC50: 26 nM
[3]; [5]
  EC50: 11.7 nM
[3]; [6]
  EC50: 13.3 nM

## Cc1cc2ncc1[C@@H]([C@H](C)C(=O)O)c1ccc3c(c1)CN(CC3)C(=O)c1ccc(cc1)C/C=C/CCO2 [Compound 58]
[1]
  IC50: 10.9 nM and 8.4 nM
[2]; [7]
  EC50: 35.1 nM
[2]; [8]
  EC50: 26.5 nM
[3]; [9]
  EC50: 9.7 nM
[3]; [10]
  EC50: 8.8 nM

## Cc1c2ccc3c1nnn3CCCCCCc1ccc(c(F)c1)C(=O)N1CCc3ccc(cc3C1)[C@H]2[C@H](C)C(=O)O [Compound 166]
[1]
  IC50: 0.7 nM and 0.6 nM
[2]; [7]
  EC50: 2.7 nM and 2.9 nM and 4.2 nM
[2]; [8]
  EC50: 2.2 nM
[3]; [9]
  EC50: 1.1 nM

## Cc1c2ccc3c1nnn3CCCCCc1ccc3c(c1)cc(n3C)C(=O)N1CCc3ccc(cc3C1)[C@@H]2[C@H](C)C(=O)O (racemic) [Compound 113]
[1]
  IC50: 1.1 nM and 0.9 nM
[2]; [7]
  EC50: 48.7 nM
[2]; [8]
  EC50: 62.7 nM
[3]; [9]
  EC50: 1.6 nM
[3]; [10]
  EC50: 1.8 nM

## Cc1cc2ccc1C(=O)N1CCc3ccc(cc3C1)C(CC(=O)O)c1ccc3c(nnn3CCCCCO2)c1C (centres unmarked) [Compound 335]
[1]
  IC50: 2.5 nM and 2.9 nM and 6.4 nM and 1.3 nM
[2]; [4]
  EC50: 36.1 nM
[3]; [5]
  EC50: 35 nM

## Cc1c2ccc3c1nnn3C/C=C/COCc1ccc(c(F)c1)C(=O)N1CCc3ccc(cc3C1)C2CC(=O)OCCO (centres unmarked) [Compound 361]
[1]
  IC50: 918 nM and 740 nM
[2]; [7]
  EC50: 1280 nM
[2]; [8]
  EC50: 1660 nM
[3]; [9]
  EC50: > 1000 nM

## Cc1cc2ncc1C(CC(=O)O)c1ccc3c(c1)CN(CC3)C(=O)c1cn(C)c3ccc(cc13)CCCCCO2 (centres unmarked) [Compound 126]
[1]
  IC50: > 990 nM
[2]; [8]
  EC50: > 10000 nM
[3]; [9]
  EC50: > 1000 nM

## O=C(O)CC1c2ccc(nc2)OCCCCCc2cnc(nc2)C(=O)N2CCc3ccc1cc3C2 (centres unmarked) [Compound 196]
[1]
  IC50: 130 nM and 116 nM
[2]; [4]
  EC50: > 10000 nM
[3]; [5]
  EC50: > 10000 nM

## Cc1c2ccc3c1nnn3CCCCCCOc1ncc(cn1)C(=O)N1CCc3ccc(cc3C1)C2CC(=O)O (centres unmarked) [Compound 377]
[1]
  IC50: 5.7 nM and 5.8 nM
[2]; BEAS+, read-out: BEAS+ EC50
  EC50: 3210 nM
[2]; [4]
  EC50: 3170 nM
[3]; [5]
  EC50: 2940 nM
[3]; [6]
  EC50: 2650 nM

## Cc1c2ccc3c1nnn3CCCCCc1ccc3c(c1)cc(n3C)C(=O)N1CCc3ccc(cc3C1)[C@H]2[C@H](C)C(=O)O [Compound 114]
[1]
  IC50: 0.4 nM
[2]; [7]
  EC50: 8.2 nM
[2]; [8]
  EC50: 9.8 nM
[3]; [9]
  EC50: 0.1 nM
[3]; [10]
  EC50: 0.2 nM

## O=C(O)CC1c2ccc(nc2)OCCCCCc2cnc(c(F)c2)C(=O)N2CCc3ccc1cc3C2 (centres unmarked) [Compound 194]
[1]
  IC50: 24.3 nM and 22.9 nM
[2]; BEAS+, read-out: BEAS+ EC50
  EC50: 829 nM
[2]; [4]
  EC50: 1080 nM
[3]; [5]
  EC50: 870 nM
[3]; [6]
  EC50: 1100 nM

## Cc1cc2ccc1C(=O)N1CCc3ccc(cc3C1)C(CC(=O)O)c1ccc(nc1)OCCCCO2 (centres unmarked) [Compound 209]
[1]
  IC50: 0.4 nM and 0.5 nM
[2]; BEAS+, read-out: BEAS+ EC50
  EC50: 903 nM
[2]; [4]
  EC50: 843 nM
[3]; [5]
  EC50: 469 nM
[3]; [6]
  EC50: 494 nM
